Like-named read-outs stand apart in the source and are kept apart here.
How the values were obtained:
MMP-2 = molecular target: T1, MMP-2 (Homo sapiens, UniProt P08253); test: MMP-2 inhibition assay (fluorogenic peptide substrate); type: biochemical
T1 construct: purchased Sino Biological 10082-HNAH
T1 sequence (P08253 110-660): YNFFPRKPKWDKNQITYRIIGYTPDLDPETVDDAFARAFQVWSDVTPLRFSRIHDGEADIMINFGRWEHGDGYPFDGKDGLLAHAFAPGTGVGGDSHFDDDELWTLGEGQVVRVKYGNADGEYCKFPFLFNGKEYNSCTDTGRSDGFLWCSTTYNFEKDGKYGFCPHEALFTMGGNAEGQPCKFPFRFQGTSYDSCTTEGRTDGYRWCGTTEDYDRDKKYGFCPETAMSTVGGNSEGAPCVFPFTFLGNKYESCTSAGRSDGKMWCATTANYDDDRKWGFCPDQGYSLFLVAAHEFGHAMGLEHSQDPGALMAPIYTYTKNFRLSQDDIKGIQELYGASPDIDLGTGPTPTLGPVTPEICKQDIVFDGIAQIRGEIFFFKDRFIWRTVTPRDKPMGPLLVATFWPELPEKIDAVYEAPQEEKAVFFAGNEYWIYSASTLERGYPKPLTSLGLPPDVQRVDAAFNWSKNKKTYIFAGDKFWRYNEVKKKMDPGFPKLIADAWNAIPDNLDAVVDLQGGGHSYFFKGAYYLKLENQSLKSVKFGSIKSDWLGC
Protocol: (§1) The inhibition by the small molecule compounds against MMP-2/MMP-9 was measured using an assay probing the enzyme proteolytic activity on the substrate DNP-Pro-Leu-Gly-Met-Trp-Ser-Arg (Enzo Life Sciences, USA). All assays were performed in the assay buffer containing 50 mM Tris, 100 mM NaCl. 5 mM CaCl2, and 0.1% Brij 35, pH 7.5. Human proMMP-2 and proMMP-9 were purchased from Sino biological (Germany). The proMMPs were activated by 1 mM APMA in the assay buffer at 37 °C for 2 h. After activation, MMP-2 was diluted to 6.5 nM of final assay concentration, and MMP-9 was diluted by the buffer to reach 10 nM of final assay concentration. In each well, 49 μl of enzyme solution was incubated with 1 μl of compounds of series of concentration (nM-mM in DMSO) at RT for 30 min. 2 μl of the FRET substrate was added right before the measurement at a final concentration of 25 μM. The rate of hydrolysis was monitored by quantifying the emission at 360 nm (ex: 280 nm). The emission was measured with intervals of the 30 s for 30 min with Synergy H1 Plate Reader (Agilent, USA). The measurements were done in triplicate. […] Then, curves were plotted as a function of the concentration of the inhibitor against the relative enzyme activity. Vmax was derived from the detected […] signal for each concentration and logistic fitting was performed to obtain IC50 values using Origin 2019b (OriginLab).

MMP-9 = molecular target: T2, MMP-9 (Homo sapiens, UniProt P14780); test: MMP-9 inhibition assay (fluorogenic peptide substrate); type: biochemical; set-up: remaining enzyme activity (% of control): scale not given here
T2 construct: purchased Sino Biological 10327-HNAH
T2 sequence (P14780 107-707 limits assumed): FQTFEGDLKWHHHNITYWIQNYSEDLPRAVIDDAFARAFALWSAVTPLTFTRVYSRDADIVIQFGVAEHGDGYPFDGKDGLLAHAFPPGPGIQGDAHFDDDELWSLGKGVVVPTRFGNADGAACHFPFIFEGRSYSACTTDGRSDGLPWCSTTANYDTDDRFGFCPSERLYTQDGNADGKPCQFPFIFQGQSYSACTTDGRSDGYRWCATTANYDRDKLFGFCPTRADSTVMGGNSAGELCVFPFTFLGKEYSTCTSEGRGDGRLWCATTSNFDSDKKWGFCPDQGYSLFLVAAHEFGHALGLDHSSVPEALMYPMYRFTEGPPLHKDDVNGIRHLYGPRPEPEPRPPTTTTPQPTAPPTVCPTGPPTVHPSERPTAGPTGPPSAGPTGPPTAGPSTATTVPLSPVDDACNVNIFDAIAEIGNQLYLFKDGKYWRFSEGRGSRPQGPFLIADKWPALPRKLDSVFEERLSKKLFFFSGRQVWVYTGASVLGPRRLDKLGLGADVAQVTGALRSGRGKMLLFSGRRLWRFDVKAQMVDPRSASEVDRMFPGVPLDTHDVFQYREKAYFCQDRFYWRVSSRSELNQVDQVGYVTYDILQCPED
Protocol: as §1

O=C(Cn1cnc2c(oc3ccccc32)c1=O)NCCOCCOCCNC(=O)c1cncc(O)c1 [182+828 Linker 10]
remaining activity (%) (MMP-2; MMP-2, concentration 0.0117 µM): 98.76
remaining activity (%) (MMP-2; MMP-2, concentration 0.06 µM): 98.75
remaining activity (%) (MMP-2; MMP-2, concentration 0.29 µM): 92.92
remaining activity (%) (MMP-2; MMP-2, concentration 1.46 µM): 80.34
remaining activity (%) (MMP-2; MMP-2, concentration 7.32 µM): 73.36
remaining activity (%) (MMP-2; MMP-2, concentration 36.60 µM): 63.34
remaining activity (%) (MMP-2; MMP-2, concentration 183.00 µM): 14.49
remaining activity (%) (MMP-2; MMP-2, concentration 915.00 µM): 0.00
IC50 (MMP-2; mean ± SE; n.d: not detected; Fig. 5d unit inferred, µM; read-out: IC50): 43 ± 19.3 µM
remaining enzyme activity (% of control) (MMP-9; MMP-9, concentration 0.06 µM): 97.14
remaining enzyme activity (% of control) (MMP-9; MMP-9, concentration 0.29 µM): 97.22
remaining enzyme activity (% of control) (MMP-9; MMP-9, concentration 1.46 µM): 90.75
remaining enzyme activity (% of control) (MMP-9; MMP-9, concentration 7.32 µM): 93.96
remaining enzyme activity (% of control) (MMP-9; MMP-9, concentration 36.60 µM): 74.71
remaining enzyme activity (% of control) (MMP-9; MMP-9, concentration 183.00 µM): 29.12
remaining enzyme activity (% of control) (MMP-9; MMP-9, concentration 915.00 µM): 0.00
IC50 (MMP-9; mean ± SE; n.d: not detected; Fig. 5e prints no unit, µM; read-out: IC50): 99.6 ± 31.7 µM

Cn1c(O)nc2cc(C(=O)NCCNC(=O)Cn3cnc4c(oc5ccccc54)c3=O)cnc21 [182+826 Linker 1]
remaining activity (%) (MMP-2; MMP-2, concentration 0.12 µM): 94.84
remaining activity (%) (MMP-2; MMP-2, concentration 0.49 µM): 90.90
remaining activity (%) (MMP-2; MMP-2, concentration 1.95 µM): 93.31
remaining activity (%) (MMP-2; MMP-2, concentration 7.81 µM): 101.10
remaining activity (%) (MMP-2; MMP-2, concentration 31.25 µM): 86.65
remaining activity (%) (MMP-2; MMP-2, concentration 125.00 µM): 86.38
remaining activity (%) (MMP-2; MMP-2, concentration 500.00 µM): 61.56
remaining enzyme activity (% of control) (MMP-9; MMP-9, concentration 0.12 µM): 83.90
remaining enzyme activity (% of control) (MMP-9; MMP-9, concentration 0.49 µM): 96.21
remaining enzyme activity (% of control) (MMP-9; MMP-9, concentration 1.95 µM): 89.70
remaining enzyme activity (% of control) (MMP-9; MMP-9, concentration 7.81 µM): 92.69
remaining enzyme activity (% of control) (MMP-9; MMP-9, concentration 31.25 µM): 77.21
remaining enzyme activity (% of control) (MMP-9; MMP-9, concentration 125.00 µM): 71.00
remaining enzyme activity (% of control) (MMP-9; MMP-9, concentration 500.00 µM): 60.44

Cc1cc(=O)[nH]c(-n2nc(C)c(CCC(=O)NCc3c[nH]nn3)c2C)n1 [693_787 1]
IC50 (MMP-2; Figure 5d; fragment combination joined by linker; n.d: not detected; read-out: MMP2 IC50): 204 µM
IC50 (MMP-9; Figure 5d; fragment combination joined by linker; n.d: not detected; read-out: MMP9 IC50): 312 µM

O=C(CCCCCCC(=O)NCC12CC3CC(CC(C3)C1)C2)NCc1c[nH]nn1 [66+787 Linker 4]
remaining activity (%) (MMP-2; MMP-2; concentration 0.0156 µM): 93.57
remaining activity (%) (MMP-2; MMP-2; concentration 0.08 µM): 87.26
remaining activity (%) (MMP-2; MMP-2; concentration 0.39 µM): 84.29
remaining activity (%) (MMP-2; MMP-2; concentration 1.95 µM): 79.19
remaining activity (%) (MMP-2; MMP-2; concentration 9.75 µM): 76.03
remaining activity (%) (MMP-2; MMP-2; concentration 48.76 µM): 60.10
remaining activity (%) (MMP-2; MMP-2; concentration 243.80 µM): 68.09
remaining activity (%) (MMP-2; MMP-2; concentration 1219.00 µM): 72.50
remaining enzyme activity (% of control) (MMP-9; MMP-9; concentration 0.08 µM): 101.70
remaining enzyme activity (% of control) (MMP-9; MMP-9; concentration 0.39 µM): 95.25
remaining enzyme activity (% of control) (MMP-9; MMP-9; concentration 1.95 µM): 95.00
remaining enzyme activity (% of control) (MMP-9; MMP-9; concentration 9.75 µM): 100.64
remaining enzyme activity (% of control) (MMP-9; MMP-9; concentration 48.76 µM): 91.07
remaining enzyme activity (% of control) (MMP-9; MMP-9; concentration 243.80 µM): 93.01
remaining enzyme activity (% of control) (MMP-9; MMP-9; concentration 1219.00 µM): 79.78

Cn1c(O)nc2cc(C(=O)NCCSCC(=O)NCC34CC5CC(CC(C5)C3)C4)cnc21 [66+826 Linker 24]
remaining activity (%) (MMP-2; MMP-2; concentration 0.12 µM): 102.86
remaining activity (%) (MMP-2; MMP-2; concentration 0.49 µM): 110.62
remaining activity (%) (MMP-2; MMP-2; concentration 1.95 µM): 101.91
remaining activity (%) (MMP-2; MMP-2; concentration 7.81 µM): 112.01
remaining activity (%) (MMP-2; MMP-2; concentration 31.25 µM): 94.11
remaining activity (%) (MMP-2; MMP-2; concentration 125.00 µM): 93.82
remaining activity (%) (MMP-2; MMP-2; concentration 500.00 µM): 94.00
remaining enzyme activity (% of control) (MMP-9; MMP-9; concentration 0.12 µM): 103.98
remaining enzyme activity (% of control) (MMP-9; MMP-9; concentration 0.49 µM): 100.00
remaining enzyme activity (% of control) (MMP-9; MMP-9; concentration 1.95 µM): 102.00
remaining enzyme activity (% of control) (MMP-9; MMP-9; concentration 7.81 µM): 100.00
remaining enzyme activity (% of control) (MMP-9; MMP-9; concentration 31.25 µM): 108.11
remaining enzyme activity (% of control) (MMP-9; MMP-9; concentration 125.00 µM): 104.50
remaining enzyme activity (% of control) (MMP-9; MMP-9; concentration 500.00 µM): 89.34
